The source of these data is patent US11911481B2, “Compositions and methods for treating RSV-infections” (UNITED STATES GOVERNMENT AS REPRESENTED BY THE DEPARTMENT …, priority 2018, dated 2024).

One data set has as its system RSV rA2-L19F. In words: Inhibition of RSV rA2-L19F fusion by HR2D peptide in A549 cells. Type of data set: cell-based. Conditions: A549 cells pre-treated with 5 or 20 μM 30 min before infection, MOI 0.1, 24 hours. How it is done:
Fluorescence microscopy images of A549 cells pre-treated with 5 or 20 μM HR2D peptide 30 min before RFP-RSV-Ln19-A2 infection MOI 0.1 for 24 hours. RFP intensity quantified with ImageJ.
RFP intensity was quantified with ImageJ.

Data set [1] can be described thus: HR2D peptide release from the outer chitosan NP-layer in PBS and in 10% FBS. Type of data set: physicochemical. Conditions: within 10 minutes. Here is the method: FIGS. 3A-C show DNA-encapsulation and HR2D-release.
The NPs were characterized for the plasmid encapsulation and integrity following synthesis, HR2D peptide release from the outer chitosan NP-layer in PBS and in 10% FBS and their cell (FIG. 3). First, chitosan-DNA nanoparticles were prepared by a complex coacervation method. In order to determine the optimal formulation, nanoparticles of different Chitosan/pDNA ratios were prepared and characterized. The binding of pDNA to chitosan for the formulations prepared herein was analyzed by gel electrophoresis.
Chitosan/pDNA NPs were coated with a liposomal layer after co-extrusion of chitosan-pDNA NPs with pre-formed liposomes. This layer ensures the stability and integrity of the plasmid DNA and the endosomal escape and also allows for functionalization of the nanoparticle surface. The liposomal layer was then coated with another layer of chitosan complexed with fusion inhibitor HR2-D peptide.

For the sequence “DACISQVNECINQSLAFICKSDELLCNT [HR2D peptide]”, in the data set on RSV rA2-L19F, the RFP expression result is recorded as “significantly lower”. In addition, the “peptide released from the outer layer” value in data set [1] was determined as 90%.
